± gives the expanded uncertainty stated by the source.
Key:
[1] = refractive index (Na D-line) (dimensionless); xn = mol fraction of the nth substance listed; settings: 101 kPa, Liquid, Standard Abbe refractometry
[2] = xn = mol fraction of the nth substance listed; settings: 101 kPa, Liquid; for speed of sound: Sing-around technique in a fixed-path interferometer; for mass density: Vibrating tube method

CCCC[N+]1(C)CCCC1.N#CN=C=[N-] [1-butyl-1-methylpyrrolidinium dicyanamide] + O
Settings | mass density, 288.15 K [kg/m3] | mass density, 298.15 K [kg/m3] | mass density, 308.15 K [kg/m3] | refractive index, 288.15 K | refractive index, 298.15 K | refractive index, 308.15 K | speed of sound, 288.15 K [m/s] | speed of sound, 298.15 K [m/s] | speed of sound, 308.15 K [m/s]
[1], x2 = 0 | – | – | – | 1.49968 ± 0.00063 | 1.49681 ± 0.00063 | 1.49392 ± 0.00064 | – | – | –
[1], x2 = 0.096 | – | – | – | 1.49811 ± 0.00061 | 1.49519 ± 0.00062 | 1.49222 ± 0.00062 | – | – | –
[1], x2 = 0.1277 | – | – | – | 1.49752 ± 0.00061 | 1.49459 ± 0.00061 | 1.49162 ± 0.00061 | – | – | –
[1], x2 = 0.2116 | – | – | – | 1.4957 ± 0.00058 | 1.49278 ± 0.00059 | 1.48982 ± 0.0006 | – | – | –
[1], x2 = 0.3077 | – | – | – | 1.49322 ± 0.00056 | 1.49032 ± 0.00058 | 1.4871 ± 0.00059 | – | – | –
[1], x2 = 0.3942 | – | – | – | 1.49044 ± 0.00054 | 1.48751 ± 0.00056 | 1.48432 ± 0.00059 | – | – | –
[1], x2 = 0.4952 | – | – | – | 1.48621 ± 0.00054 | 1.48329 ± 0.00055 | 1.47987 ± 0.00057 | – | – | –
[1], x2 = 0.5023 | – | – | – | 1.4858 ± 0.00054 | 1.48284 ± 0.00055 | 1.47973 ± 0.00055 | – | – | –
[1], x2 = 0.6047 | – | – | – | 1.4797 ± 0.00053 | 1.47674 ± 0.00054 | 1.47345 ± 0.00055 | – | – | –
[1], x2 = 0.6137 | – | – | – | 1.47901 ± 0.00052 | 1.4761 ± 0.00053 | 1.47289 ± 0.00054 | – | – | –
[1], x2 = 0.7061 | – | – | – | 1.47041 ± 0.00051 | 1.46748 ± 0.00052 | 1.46424 ± 0.00053 | – | – | –
[1], x2 = 0.7177 | – | – | – | 1.46905 ± 0.00051 | 1.46612 ± 0.00052 | 1.46281 ± 0.00054 | – | – | –
[1], x2 = 0.7571 | – | – | – | 1.46368 ± 0.00046 | 1.46078 ± 0.00052 | 1.45746 ± 0.00058 | – | – | –
[1], x2 = 0.8208 | – | – | – | 1.45158 ± 0.00046 | 1.4487 ± 0.0005 | 1.44577 ± 0.00057 | – | – | –
[1], x2 = 0.8468 | – | – | – | 1.44481 ± 0.00045 | 1.44172 ± 0.00051 | 1.43884 ± 0.00056 | – | – | –
[1], x2 = 0.9034 | – | – | – | 1.42419 ± 0.00043 | 1.42145 ± 0.00048 | 1.41909 ± 0.00077 | – | – | –
[1], x2 = 0.904 | – | – | – | 1.42386 ± 0.00043 | 1.42118 ± 0.00048 | 1.41891 ± 0.00077 | – | – | –
[1], x2 = 0.9492 | – | – | – | 1.39597 ± 0.00047 | 1.39362 ± 0.00046 | 1.39175 ± 0.00045 | – | – | –
[1], x2 = 0.9507 | – | – | – | 1.39472 ± 0.00046 | 1.39249 ± 0.00045 | 1.39055 ± 0.00045 | – | – | –
[1], x2 = 0.9517 | – | – | – | 1.3939 ± 0.00046 | 1.39161 ± 0.00045 | 1.3897 ± 0.00045 | – | – | –
[2], x2 = 0 | 1019.17 ± 1.1 | 1013.53 ± 1.1 | 1007.93 ± 1.1 | – | – | – | 1836.9 ± 2.3 | 1811.1 ± 2.3 | 1781.9 ± 2.3
[2], x2 = 0.096 | 1018.92 ± 0.94 | 1013.25 ± 0.93 | 1007.63 ± 0.91 | – | – | – | 1836.1 ± 2.1 | 1810.6 ± 2.1 | 1782.4 ± 2.1
[2], x2 = 0.1277 | 1018.84 ± 0.88 | 1013.16 ± 0.87 | 1007.52 ± 0.86 | – | – | – | 1835.8 ± 2.1 | 1810.4 ± 2.1 | 1783.1 ± 2.1
[2], x2 = 0.2116 | 1018.6 ± 0.73 | 1012.89 ± 0.72 | 1007.23 ± 0.71 | – | – | – | 1835.3 ± 2 | 1810.1 ± 2 | 1783.8 ± 2
[2], x2 = 0.3077 | 1018.31 ± 0.58 | 1012.56 ± 0.58 | 1006.85 ± 0.57 | – | – | – | 1835.6 ± 1.8 | 1810 ± 1.8 | 1784.2 ± 1.8
[2], x2 = 0.3942 | 1018.08 ± 0.47 | 1012.27 ± 0.46 | 1006.5 ± 0.45 | – | – | – | 1834.9 ± 1.7 | 1810 ± 1.7 | 1785.7 ± 1.7
[2], x2 = 0.4952 | 1017.78 ± 0.35 | 1011.89 ± 0.34 | 1006.03 ± 0.33 | – | – | – | 1835.1 ± 1.6 | 1810.8 ± 1.6 | 1786.7 ± 1.5
[2], x2 = 0.5023 | 1017.76 ± 0.34 | 1011.86 ± 0.33 | 1005.99 ± 0.33 | – | – | – | 1835.2 ± 1.6 | 1810.9 ± 1.5 | 1786.7 ± 1.5
[2], x2 = 0.6047 | 1017.45 ± 0.24 | 1011.42 ± 0.24 | 1005.42 ± 0.23 | – | – | – | 1835.9 ± 1.4 | 1811.8 ± 1.4 | 1788 ± 1.4
[2], x2 = 0.6137 | 1017.41 ± 0.23 | 1011.37 ± 0.23 | 1005.35 ± 0.22 | – | – | – | 1835.7 ± 1.4 | 1811.8 ± 1.4 | 1788 ± 1.4
[2], x2 = 0.7061 | 1016.91 ± 0.16 | 1010.72 ± 0.16 | 1004.54 ± 0.16 | – | – | – | 1832.9 ± 1.3 | 1809.6 ± 1.3 | 1786.1 ± 1.3
[2], x2 = 0.7177 | 1016.81 ± 0.16 | 1010.61 ± 0.15 | 1004.4 ± 0.15 | – | – | – | 1832 ± 1.3 | 1808.9 ± 1.3 | 1785.6 ± 1.3
[2], x2 = 0.7571 | 1016.39 ± 0.13 | 1010.13 ± 0.13 | 1003.86 ± 0.13 | – | – | – | 1827.3 ± 1.3 | 1804.9 ± 1.3 | 1782.1 ± 1.3
[2], x2 = 0.8208 | 1015.22 ± 0.1 | 1008.91 ± 0.1 | 1002.57 ± 0.1 | – | – | – | 1810.9 ± 1.2 | 1790.5 ± 1.2 | 1769.4 ± 1.2
[2], x2 = 0.8468 | 1014.46 ± 0.09 | 1008.19 ± 0.09 | 1001.84 ± 0.09 | – | – | – | 1798.5 ± 1.2 | 1779.7 ± 1.2 | 1756.5 ± 1.2
[2], x2 = 0.9034 | 1011.96 ± 0.07 | 1005.98 ± 0.07 | 999.84 ± 0.07 | – | – | – | 1750.6 ± 1.1 | 1738.3 ± 1.1 | 1724.2 ± 1.1
[2], x2 = 0.904 | 1011.92 ± 0.07 | 1005.93 ± 0.07 | 999.81 ± 0.07 | – | – | – | 1749.8 ± 1.1 | 1737.2 ± 1.1 | 1723.6 ± 1.1
[2], x2 = 0.9492 | 1008.27 ± 0.06 | 1003.12 ± 0.06 | 997.62 ± 0.06 | – | – | – | 1671.5 ± 1.1 | 1670.7 ± 1.1 | 1666.7 ± 1.1
[2], x2 = 0.9507 | 1008.1 ± 0.06 | 1002.99 ± 0.06 | 997.53 ± 0.06 | – | – | – | 1667.9 ± 1.1 | 1667.7 ± 1.1 | 1664.3 ± 1.1
[2], x2 = 0.9517 | 1007.98 ± 0.06 | 1002.91 ± 0.06 | 997.47 ± 0.06 | – | – | – | 1665.4 ± 1.1 | 1665.5 ± 1.1 | 1662.5 ± 1.1
